Source: patent publication US20110152362A1, “METHODS OF TREATING EPILEPTOGENESIS AND EPILEPSY” (priority 2004, published 2011)
Marks after values point to notes of the source that are not given here.

Key:
seizures in rats = assay: ED50 for preventing seizures in rats; format: in vivo; conditions: Rattus norvegicus, depending on the time and experiment type
[1] = system: rats subjected to Li-pilo induced SE; assay: Example 1: Timm staining, mossy fiber sprouting in hippocampus; format: in vivo, rat; conditions: for Timm score: 60 mg/kg
Description: At 2 months after the onset of spontaneous recurrent seizures, mossy fiber sprouting was examined on rats in the chronic period exposed to the test compound or DZP and in 3 saline-saline rats. Animals were deeply anaesthetized and perfused transcardially with saline followed by 100 ml of 1.15% (w/v) Na2S in 0.1 M phosphate buffer, and 100 ml of 4% (v/v) formaldehyde in 0.1 M phosphate buffer. Brains were removed from skull, post-fixed in 4% formaldehyde during 3-5 h and 40 μm sections were cut on a sliding vibratome and mounted on gelatin-coated slides.
The following day, sections were developed in the dark in a 26° C. solution of 50% (w/v) arabic gum (160 ml), sodium citrate buffer (30 ml), 5.7% (w/v) hydroquinone (80 ml) and 10% (w/v) silver nitrate (2.5 ml) during 40-45 min. The sections were then rinsed with tap water at 40° C. during at least 45 min, rinsed rapidly with distilled water and allowed to dry. They were dehydrated in ethanol and coverslipped.
Mossy fiber sprouting was evaluated according to criteria previously described in dorsal hippocampus (Cavazos et al., 1991, J Neurosci 11:2795-2803.), which are follows: 0—no granules between the tips and crest of the DG; 1—sparse granules in the supragranular region in a patchy distribution between the tips and crest of DG; 2—more numerous granules in a continuous distribution between the tips and crest of DG; 3—prominent granules in a continuous pattern between tips and crest, with occasional patches of confluent granules between tips and crest; 4—prominent granules that form a confluent dense laminar band between tips and crest and 5—confluent dense laminar band of granules that extends into the inner molecular layer.

[2] = Example 3 study 2: repeated oral dose (q12h, 1 wk) pharmacokinetics in healthy men; format: in vivo, human
Description: Two single-center, placebo-controlled, double-blind, ascending-dose studies were conducted in healthy men ≧18 and ≦45 yrs. In study 1 (N=70), subjects were randomly assigned to a single dose of Test Compound (TC) or placebo. Escalated doses were received as 100, 250, 400, 750, 1000, 1250, and 1500 mg. PK parameters were estimated from plasma and urine samples collected up to 3 days post dose. Study 2 (N=53) evaluated the PK of repeated doses of Test Compound (TC) in 4 dose groups (100, 250, 500, or 750 mg). Within each group, 12 subjects were assigned to q12h treatment with drug or placebo for 1 wk and were crossed over after a 14-day washout period. PK parameters were estimated from plasma and urine samples on days 1 and 7.

[3] = system: rats subjected to li-pilo SE; assay: Example 2: quantification of cell densities 14 days after li-pilo SE; conditions: for number of neuronal cell bodies: Amygdala Basolateral / number of neuronal cell bodies: Amygdala Medial, dorsal anterior / number of neuronal cell bodies: Amygdala Medial, ventral posterior / number of neuronal cell bodies: Cerebral cortex Entorhinal, layer II, dorsal / number of neuronal cell bodies: Cerebral cortex Entorhinal, layer II, ventral / number of neuronal cell bodies: Cerebral cortex Entorhinal, layer III/IV, dorsal / number of neuronal cell bodies: Cerebral cortex Entorhinal, layer III/IV, ventral / number of neuronal cell bodies: Cerebral cortex Piriform, layer II, dorsal / number of neuronal cell bodies: Cerebral cortex Piriform, layer II, ventral / number of neuronal cell bodies: Cerebral cortex Piriform, layer III / number of neuronal cell bodies: Hippocampus CA1 area / number of neuronal cell bodies: Hippocampus CA3 area / number of neuronal cell bodies: Hippocampus Hilus / number of neuronal cell bodies: Thalamus Central medial / number of neuronal cell bodies: Thalamus Dorsolateral, medial, dorsal / number of neuronal cell bodies: Thalamus Dorsolateral, ventral lateral / number of neuronal cell bodies: Thalamus Mediodorsal central / number of neuronal cell bodies: Thalamus Mediodorsal lateral / number of neuronal cell bodies: Thalamus Mediodorsal medial: 14 days after li-pilo SE;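 as to all read-outs here: Thionine-stained 20 µm brain sections, neurons with cell bodies above 10 µm counted, value is the mean of 12 fields per structure from three adjacent sections, both sides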
Description: All rats received lithium chloride (3 meq/kg, i.p., Sigma, St Louis, Mo., U.S.A.) and about 20 h later, all animals received also methylscopolamine bromide (1 mg/kg, s.c., Sigma) that was administered to limit the peripheral effects of the convulsant. […] The effects of increasing doses of TC were studied in 5 groups of rats. […] The control group received vehicle instead of pilocarpine and TC.
For neuronal counting, animals were deeply anesthetized with 1.8 g/kg pentobarbital (Dolethal®, Vetoquinol, Lure, France). Brains were then removed and frozen. Serial 20 μm slices were cut in a cryostat, air-dried during several days before thionine staining. […] The grid of counting was placed on a well defined area of the cerebral structure of interest and counting was carried out with a microscopic enlargement of 200- or 400-fold defined for each single cerebral structure. Cell counts were performed twice on each side of three adjacent sections for each region by a single observer unaware of the animal's treatment. The number of cells obtained in the 12 counted fields in each cerebral structure was averaged. This procedure was used to minimize the potential errors that could result from double counting leading to overestimation of cell numbers. […] Counts involved only neurons with cell bodies larger than 10 μm. Cells with small cell bodies were considered as glial cells and were not counted.
For neuronal damage and epileptogenesis, statistical analysis between groups was performed by means of a one-way analysis of variance followed by a post-hoc Dunnett or Fisher test using the Statistica software.

[4] = repeated doses q12h, 100-750 mg

## NC(=O)OC[C@@H](O)c1ccccc1Cl [TC]
Seizures in rats
  ED50: 4 to 30 mg/kg
[1]; subgroup with early SRS occurrence
  Timm score: 1.8±0.6
[1]; subgroup with late occurrence or absence of SRS
  Timm score: 1.2±0.6
[1]; pilo-TC10 rats
  Timm score in the upper blade of the dentate gyrus, mean: 1.5±0.6
[1]; pilo-TC30 rats
  Timm score in the upper blade of the dentate gyrus, mean: 2.6±1.0
[1]; whole group of pilo-TC60 rats
  Timm score in the upper blade of the dentate gyrus, mean: 1.5±0.7
[2]; healthy men
  Mean CLR relative to mean oral clearance: < 5 % of the mean oral clearance
[2]; male, human, plasma, oral, repeated doses q12h, 100-750 mg
  Tmax at 1 wk: 1.3 to 1.8 h
[2]; male, human, plasma, oral, repeated doses q12h, 100-750 mg, read-out: mean t1/2 at steady state
  half-life at 1 wk: 11.9 to 12.8 h
[2]; q12h administration, listed as Test Compound
  accumulation: Cmax and AUC0-12 on day 7 vs. day 1: about two-fold
[2]; repeated doses 100-750 mg
  Steady-state Cmax and AUC0-12 dose dependence: increased in proportion to the dose
[2]; [4]
  mean CL/F at steady state: 3.40 to 3.78 L/h
  time for plasma concentrations to reach steady state: 3 to 4 days
[2]; single (100-1500 mg) and repeated (100-750 mg bid) doses, healthy adult men
  linearity of PK: linear
[3]; 30 mg/kg
  protective effects at lowest dose tested in Example 2: some measurable protective effects
[3]; TC 60 mg/kg, 14 days after SE
  neuronal drop out, layer II of the dorsal piriform cortex: 25%
[3]; TC 90 mg/kg, 14 days after SE
  damage remaining, ventral entorhinal cortex layer II: 4%
  damage remaining, ventral entorhinal cortex layers III/IV: 17%
[3]; TC 120 mg/kg, 14 days after SE
  neuronal density in piriform cortex, % of control levels: 78-96 % of control levels
  neurons surviving in entorhinal cortex, dorsal and ventral: 85-94%
[3]; TC30, 60 and 90 groups (range also covers DZP), 14 days after SE
  cell loss (drop out) in the hilus of dentate gyrus: 61-66%
[3]; TC30, 60 or 90 rats, 14 days after SE
  cell loss, CA1 pyramidal cell layer: 36-47%
[3]; TC120 group, 14 days after SE
  cell loss, CA1 pyramidal cell layer: 12%
  neuronal loss in the hilus of dentate gyrus: 53%
[3]; TC120 rats, 14 days after SE
  neuronal drop out in thalamic nuclei: 4-19%
[3]; highest dose, 120 mg/kg, 14 days after SE
  number of neurons in all amygdala nuclei, % of the control level: 86-99 % of the control level
[3]; pilo-TC30 (TC 30 mg/kg)
  number of neuronal cell bodies: Amygdala Basolateral: 27.3 ± 4.9**°
  number of neuronal cell bodies: Amygdala Medial, dorsal anterior: 46.8 ± 5.0
  number of neuronal cell bodies: Amygdala Medial, ventral posterior: 22.3 ± 1.8
  number of neuronal cell bodies: Cerebral cortex Entorhinal, layer II, dorsal: 23.4 ± 0.6
  number of neuronal cell bodies: Cerebral cortex Entorhinal, layer II, ventral: 22.7 ± 0.9
  number of neuronal cell bodies: Cerebral cortex Entorhinal, layer III/IV, dorsal: 22.3 ± 0.5
  number of neuronal cell bodies: Cerebral cortex Entorhinal, layer III/IV, ventral: 13.2 ± 1.9
  number of neuronal cell bodies: Cerebral cortex Piriform, layer II, dorsal: 15.7 ± 2.9
  number of neuronal cell bodies: Cerebral cortex Piriform, layer II, ventral: 7.2 ± 3.8
  number of neuronal cell bodies: Cerebral cortex Piriform, layer III: 1.8 ± 1.8
  number of neuronal cell bodies: Hippocampus CA1 area: 39.3 ± 44**°°
  number of neuronal cell bodies: Hippocampus CA3 area: 35.7 ± 1.8
  number of neuronal cell bodies: Hippocampus Hilus: 33.0 ± 3.2
  number of neuronal cell bodies: Thalamus Central medial: 75.6 ± 7.7
  number of neuronal cell bodies: Thalamus Dorsolateral, medial, dorsal: 64.2 ± 9.3**°°
  number of neuronal cell bodies: Thalamus Dorsolateral, ventral lateral: 8.8 ± 2.8
  number of neuronal cell bodies: Thalamus Mediodorsal central: 26.9 ± 0.6
  number of neuronal cell bodies: Thalamus Mediodorsal lateral: 20.5 ± 0.7
  number of neuronal cell bodies: Thalamus Mediodorsal medial: 11.5 ± 2.5
[3]; pilo-TC60 (TC 60 mg/kg)
  number of neuronal cell bodies: Amygdala Basolateral: 27.8 ± 4.3**°°
  number of neuronal cell bodies: Amygdala Medial, dorsal anterior: 58.4 ± 2.8**°
  number of neuronal cell bodies: Amygdala Medial, ventral posterior: 26.2 ± 2.9
  number of neuronal cell bodies: Cerebral cortex Entorhinal, layer II, dorsal: 23.9 ± 0.5
  number of neuronal cell bodies: Cerebral cortex Entorhinal, layer II, ventral: 23.3 ± 0.8
  number of neuronal cell bodies: Cerebral cortex Entorhinal, layer III/IV, dorsal: 23.2 ± 0.8
  number of neuronal cell bodies: Cerebral cortex Entorhinal, layer III/IV, ventral: 16.5 ± 2.2
  number of neuronal cell bodies: Cerebral cortex Piriform, layer II, dorsal: 27.5 ± 2.8**°°
  number of neuronal cell bodies: Cerebral cortex Piriform, layer II, ventral: 13.7 ± 4.2
  number of neuronal cell bodies: Cerebral cortex Piriform, layer III: 6.4 ± 2.3
  number of neuronal cell bodies: Hippocampus CA1 area: 31.9 ± 44**°°
  number of neuronal cell bodies: Hippocampus CA3 area: 31.6 ± 1.4
  number of neuronal cell bodies: Hippocampus Hilus: 32.8 ± 3.3
  number of neuronal cell bodies: Thalamus Central medial: 83.7 ± 9.6
  number of neuronal cell bodies: Thalamus Dorsolateral, medial, dorsal: 77.5 ± 3.9**°°
  number of neuronal cell bodies: Thalamus Dorsolateral, ventral lateral: 56.7 ± 8.7
  number of neuronal cell bodies: Thalamus Mediodorsal central: 24.1 ± 1**^
  number of neuronal cell bodies: Thalamus Mediodorsal lateral: 18.9 ± 0.6
  number of neuronal cell bodies: Thalamus Mediodorsal medial: 19.1 ± 2.6
[3]; pilo-TC90 (TC 90 mg/kg)
  number of neuronal cell bodies: Amygdala Basolateral: 40.7 ± 1.6°°
  number of neuronal cell bodies: Amygdala Medial, dorsal anterior: 72.2 ± 5.7°°
  number of neuronal cell bodies: Amygdala Medial, ventral posterior: 30.7 ± 3.7°°
  number of neuronal cell bodies: Cerebral cortex Entorhinal, layer II, dorsal: 26.3 ± 0.9
  number of neuronal cell bodies: Cerebral cortex Entorhinal, layer II, ventral: 25.4 ± 1.1°^
  number of neuronal cell bodies: Cerebral cortex Entorhinal, layer III/IV, dorsal: 26.7 ± 0.8
  number of neuronal cell bodies: Cerebral cortex Entorhinal, layer III/IV, ventral: 23.7 ± 1.5°°
  number of neuronal cell bodies: Cerebral cortex Piriform, layer II, dorsal: 32.4 ± 1.1°°
  number of neuronal cell bodies: Cerebral cortex Piriform, layer II, ventral: 18.4 ± 4.0°°
  number of neuronal cell bodies: Cerebral cortex Piriform, layer III: 9 ± 3.0°°
  number of neuronal cell bodies: Hippocampus CA1 area: 47.7 ± 6.6*°
  number of neuronal cell bodies: Hippocampus CA3 area: 35.1 ± 2.9
  number of neuronal cell bodies: Hippocampus Hilus: 37.5 ± 3.1
  number of neuronal cell bodies: Thalamus Central medial: 88.2 ± 8.5^
  number of neuronal cell bodies: Thalamus Dorsolateral, medial, dorsal: 79.4 ± 3.1**°°
  number of neuronal cell bodies: Thalamus Dorsolateral, ventral lateral: 71.8 ± 5.3°°*
  number of neuronal cell bodies: Thalamus Mediodorsal central: 27.4 ± 1.5^
  number of neuronal cell bodies: Thalamus Mediodorsal lateral: 22 ± 1.2*°
  number of neuronal cell bodies: Thalamus Mediodorsal medial: 23.1 ± 2.8°°
[3]; pilo-TC120 (TC 120 mg/kg)
  number of neuronal cell bodies: Amygdala Basolateral: 42.7 ± 1.3°°
  number of neuronal cell bodies: Amygdala Medial, dorsal anterior: 80.2 ± 2.6°°
  number of neuronal cell bodies: Amygdala Medial, ventral posterior: 34.7 ± 1.7°°
  number of neuronal cell bodies: Cerebral cortex Entorhinal, layer II, dorsal: 27.3 ± 0.5°°
  number of neuronal cell bodies: Cerebral cortex Entorhinal, layer II, ventral: 25.1 ± 0.6^
  number of neuronal cell bodies: Cerebral cortex Entorhinal, layer III/IV, dorsal: 26.4 ± 0.7°°
  number of neuronal cell bodies: Cerebral cortex Entorhinal, layer III/IV, ventral: 24.5 ± 1.4°°
  number of neuronal cell bodies: Cerebral cortex Piriform, layer II, dorsal: 35.2 ± 1.1°°
  number of neuronal cell bodies: Cerebral cortex Piriform, layer II, ventral: 30.5 ± 1.3°°
  number of neuronal cell bodies: Cerebral cortex Piriform, layer III: 15 ± 2.2°°
  number of neuronal cell bodies: Hippocampus CA1 area: 65.5 ± 2.9°°
  number of neuronal cell bodies: Hippocampus CA3 area: 39.8 ± 1.5
  number of neuronal cell bodies: Hippocampus Hilus: 44.8 ± 2.9
  number of neuronal cell bodies: Thalamus Central medial: 108.2 ± 6.6° ^
  number of neuronal cell bodies: Thalamus Dorsolateral, medial, dorsal: 89.8 ± 3.7*°
  number of neuronal cell bodies: Thalamus Dorsolateral, ventral lateral: 79.0 ± 4.7°°
  number of neuronal cell bodies: Thalamus Mediodorsal central: 29.9 ± 1.7°^
  number of neuronal cell bodies: Thalamus Mediodorsal lateral: 24.4 ± 1.1°°
  number of neuronal cell bodies: Thalamus Mediodorsal medial: 28.6 ± 0.8°°
